Measured values from patent publication US9045505B2, “Nitric oxide donors” (University of Otago, priority 2006, dated 2015).

Experiments:
[1] = system: liver mitochondria; experiment: S-nitrosation of mitochondrial protein thiols (chemiluminescence SNO assay); type: biochemical, rat; details: for S-nitrosation of mitochondrial proteins: 2.5 min incubation, SNAP even at 50 μM
Procedure: FIG. 11 is a series of graphs showing S-nitrosation of mitochondrial thiols by MitoSNAP. (a) Time course of S-nitrosation of mitochondrial proteins by MitoSNAP. Liver mitochondria (1 mg protein) were incubated in 1 ml KCl buffer supplemented with rotenone and succinate in the presence of 5 μM MitoSNAP. At various times mitochondria were treated with 10 mM N-ethylmaleimide (NEM), isolated by centrifugation and the S-nitrosothiol content assessed. Data are of a typical experiment showing means±range of duplicate samples for each time point, each measured in duplicate. The experiment was repeated twice. (b) S-nitrosation of mitochondrial proteins by different concentrations of MitoSNAP and SNAP. Aliquots of liver mitochondria were incubated with the indicated concentrations of MitoSNAP or SNAP for […] in the presence or absence of 500 nM FCCP and then assessed for S-nitrosothiol content as in (a). For the +NEM sample, 10 mM NEM was added to the mitochondria and 1 min later 5 μM MitoSNAP was added and incubated for a further 2.5 min. Data are of a typical experiment showing means±range of duplicate samples for each time point, each measured in duplicate. The experiment was repeated twice. (c) S-nitrosation of cellular protein thiols by MitoSNAP. C2C12 cells were preincubated for 5 min in 2 ml cell culture medium containing either 20 μM FCCP or DMSO carrier, then 5 μM MitoSNAP or SNAP was added. After further incubation for 5 min at 37° C. in the dark, the medium was removed and the content of S-nitrosated proteins was measured. Data are means±range of the duplicate determinations. […] (d) S-nitrosation of a mitochondria-enriched cell subfraction. C2C12 cells were preincubated for 5 min in cell culture medium containing either 20 μM FCCP or dimethylsulfoxide (DMSO) carrier, then 5 μM MitoSNAP was added. After 5 min at 37° C. in the dark, the medium was removed and the cells were processed to isolate a mitochondria-enriched fraction and S-nitrosated protein was then determined Data are mean±sem of triplicate determinations (+MitoSNO1), or mean±range of duplicate determinations (+FCCP). (e & f) Visualisation of S-nitrosated mitochondrial proteins by copper/ascorbate-dependent labelling of thiols with a Cy3 fluorophore. Liver (e) or heart (f) mitochondria (1 mg protein) were incubated in 1 ml KCl buffer supplemented with rotenone and succinate in the presence of no additions, 10 μM MitoSNAP or 500 μM diamide for 5 min. S-nitrosated thiols were then selectively tagged with Cy3 maleimide and protein (10 μg) was then separated on a 12.5% SDS PAGE gel which was stained with coomassie blue and scanned for Cy3 fluorescence. The Cy3 fluorescence (SNO) and coomassie staining (coomassie) of each gel is shown.
FIG. 13 is a trace and graph showing limited S-nitrosation of mitochondria by DetaNONOate. […] Where indicated 500 μM DetaNONOate was added and the concentration of NO^• was measured over time, before 5 μM OxyHb was added. […] Then protein pellets were resuspended and processed for analysis of protein S-nitrosothiols. Control incubations in the presence of 10 mM NEM were also carried out. Data are means±range of two independent experiments each being the average of four mitochondrial incubations.
Nitrite, nitric oxide and S-nitrosothiol measurements. Nitrite was analyzed by the Griess assay (Molecular Probes). Nitric oxide was measured using an NO^• electrode (World Precision Instruments Ltd, UK) connected to an Apollo 4000 Free Radical Analyser. The electrode was inserted into a stirred, sealed 3 ml chamber with a Clark type O2 electrode (Rank Brothers, UK) built into its base and was thermostatted at 37° C. The NO^• electrode was calibrated by adding SNAP to argon-purged, saturated CuCl. OxyHb was prepared by reduction of bovine methemoglobin with sodium dithionite.

[2] = system: rat thoracic aorta; experiment: Relaxation of pre-contracted rat thoracic aorta (myograph); details: for EC50: pre-contracted rat thoracic aorta, read-out: EC50 blood vessel relaxation
Procedure: FIG. 16 is a series of graphs showing the vasodilatory and tissue protective effects of MitoSNAP. (a) Dose-response curves for the effect of MitoSNAP and related compounds on blood vessel relaxation. The effects of intact or decomposed MitoSNAP and SNAP on pre-contracted rat thoracic aorta mounted in a myograph were determined Data represent means±sem. For MitoSNAP n=8 from experiments on two independent rat aorta preparations. For decomposed MitoSNAP and SNAP experiments the data (n=4) are from one aorta preparation. (b) EC50 for the effect of MitoSNAP and SNAP on blood vessel relaxation. The EC50 values were determined from experiments shown in (a) above. ***p<0.001 by Student's unpaired t-test. (c & d) MitoSNAP protects against I/R injury in Langendorff-perfused mouse hearts. Hearts from C57BL6 mice were Langendorff perfused and subjected to 25 min global normothermic ischemia followed by 1 h of reperfusion. MitoSNAP or MitoNAP (100 nM final), or vehicle carrier, was added via an infusion port above the aortic cannula during reperfusion. Hearts were then stained with 2,3,5-triphenyltetrazolium chloride (TTC) to visualize infarct. (c) Protection of heart function by MitoSNAP during I/R injury. Left ventricular contractile function was recorded throughout the I/R protocol.
Sprague-Dawley rats (male 250-350 g) were anesthetized by intraperitoneal injection of ketamine and xylazine (100 and 16 mg/kg, respectively) and thoracic aortas were excized and placed in Krebs-Henseleit buffer (pH 7.3) at 37° C. […] The concentrations of MitoSNAP and SNAP were calculated using ε=950 M^−1.cm^−1 and 1168 M^−1.cm^−1 at 340-344 nm respectively in PBS supplemented with 10 μM DTPA.
The uptake of MitoSNAP into mitochondria within vascular tissue and the subsequent NO^• release may make MitoSNAP a potent vasodilator. This was evaluated by determining whether MitoSNAP could relax the smooth muscle in blood vessel walls. […]

For CC(=O)NC(C(=O)O)C(C)(C)SN=O (racemic) [SNAP, S-nitroso-N-acetyl-DL-penicillamine, reference compound], the “S-nitrosation of mitochondrial proteins” value [1] was “negligible S-nitrosation” and the EC50 [2] was 0.0195 µM.
With CC(=O)NC(C(=O)NCCCCC[P+](c1ccccc1)(c1ccccc1)c1ccccc1)C(C)(C)SN=O.CS(=O)(=O)[O-] (stereo not drawn) [MitoSNAP, [5-(2-acetylamino-3-methyl-3-nitrosothio-butyrylamino)-penty1]-triphenylphosphonium methanesulfonate] the “maximum S-nitrosation as share of the total number of protein thiols available” value ([1]; 5 μM) was about 1%, the “maximum extent of mitochondrial protein S-nitrosation” value ([1]; 5 μM) was about 500 pmol SNO/mg protein and the “S-nitrosated proteins after sulfosalicylic acid lysis and precipitation (control experiment)” value ([1]; 5 μM, 5 min, mean±SEM of 4) was 359±89 pmol SNO/mg protein. The “time of peak S-nitrosation of mitochondrial proteins” value ([1]; 5 μM, liver mitochondria) was 2 to 3 min, the “S-nitrosation of mitochondrial proteins” value [1] was “extensive, concentration-dependent S-nitrosation” and the EC50 [2] was 0.0045 µM. For the same compound, the “vasodilator effect after degradation of the SNO moiety” value ([2]; pretreated (light) to degrade SNO) was “ineffective”.
